In brackets after ≈: the same amount, converted by molar mass.
Key:
Format in all cases: functional
Enterococcus faecalis = assay: Antibacterial activity against Enterococcus faecalis obtained from complicated skin and skin structure infections by agar dilution method
Enterococcus faecium = assay: Antibacterial activity against Enterococcus faecium obtained from complicated skin and skin structure infections by agar dilution method
Streptococcus agalactiae = assay: Antibacterial activity against Streptococcus agalactiae obtained from complicated skin and skin structure infections by agar dilution method
Streptococcus pyogenes = assay: Antibacterial activity against Streptococcus pyogenes obtained from complicated skin and skin structure infections by agar dilution method
[1] = Antibacterial activity against Streptococcus sp. 'group C' obtained from complicated skin and skin structure infections by agar dilution method
[2] = Antibacterial activity against Streptococcus sp. 'group G' obtained from complicated skin and skin structure infections by agar dilution method
[3] = test system: Streptococcus constellatus; assay: Antibacterial activity against Streptococcus constellatus obtained from complicated skin and skin structure infections by agar dilution method
Streptococcus mitis = assay: Antibacterial activity against Streptococcus mitis obtained from complicated skin and skin structure infections by agar dilution method
[4] = test system: Staphylococcus intermedius; assay: Antibacterial activity against Staphylococcus intermedius obtained from complicated skin and skin structure infections by agar dilution method
Aerococcus viridans = assay: Antibacterial activity against Aerococcus viridans obtained from complicated skin and skin structure infections by agar dilution method
Bacillus = assay: Antibacterial activity against Bacillus spp. obtained from complicated skin and skin structure infections by agar dilution method
Gemella morbillorum = assay: Antibacterial activity against Gemella morbillorum obtained from complicated skin and skin structure infections […]
Gemella = assay: Antibacterial activity against Gemella spp. obtained from complicated skin and skin structure infections by agar dilution method
Lactococcus lactis = assay: Antibacterial activity against Lactococcus lactis obtained from complicated skin and skin structure infections by agar dilution method
Micrococcus = assay: Antibacterial activity against Micrococcus spp. obtained from complicated skin and skin structure infections by agar dilution method
Pseudomonas aeruginosa = assay: Antibacterial activity against Pseudomonas aeruginosa obtained from complicated skin and skin structure infections by agar dilution method
Acinetobacter baumannii = assay: Antibacterial activity against Acinetobacter baumannii obtained from complicated skin and skin structure infections by agar dilution method
Pseudomonas fluorescens = assay: Antibacterial activity against Pseudomonas fluorescens obtained from complicated skin and skin structure infections by agar dilution method
[5] = test system: Stenotrophomonas maltophilia; assay: Antibacterial activity against Stenotrophomonas maltophilia obtained from complicated skin and skin structure infections by agar dilution method
Klebsiella aerogenes = assay: Antibacterial activity against Enterobacter aerogenes obtained from complicated skin and skin structure infections by agar dilution method
Klebsiella oxytoca = assay: Antibacterial activity against Klebsiella oxytoca obtained from complicated skin and skin structure infections by agar dilution method
Citrobacter braakii = assay: Antibacterial activity against Citrobacter braakii obtained from complicated skin and skin structure infections by agar dilution method
Citrobacter freundii = assay: Antibacterial activity against Citrobacter freundii obtained from complicated skin and skin structure infections by agar dilution method
Enterobacter amnigenus = assay: Antibacterial activity against Enterobacter amnigenus obtained from complicated skin and skin structure infections by agar dilution method; conditions: Lelliottia amnigena
Enterobacter cloacae = assay: Antibacterial activity against Enterobacter cloacae obtained from complicated skin and skin structure infections by agar dilution method
Escherichia coli = assay: Antibacterial activity against Escherichia coli obtained from complicated skin and skin structure infections by agar dilution method
Klebsiella pneumoniae = assay: Antibacterial activity against Klebsiella pneumoniae obtained from complicated skin and skin structure infections by agar dilution method
Morganella morganii = assay: Antibacterial activity against Morganella morganii obtained from complicated skin and skin structure infections by agar dilution method
Proteus mirabilis = assay: Antibacterial activity against Proteus mirabilis obtained from complicated skin and skin structure infections by agar dilution method
Proteus penneri = assay: Antibacterial activity against Proteus penneri obtained from complicated skin and skin structure infections by agar dilution method
Proteus vulgaris = assay: Antibacterial activity against Proteus vulgaris obtained from complicated skin and skin structure infections by agar dilution method
Providencia stuartii = assay: Antibacterial activity against Providencia stuartii obtained from complicated skin and skin structure infections by agar dilution method
Salmonella = assay: Antibacterial activity against Salmonella spp. obtained from complicated skin and skin structure infections by agar dilution method
Serratia marcescens = assay: Antibacterial activity against Serratia marcescens obtained from complicated skin and skin structure infections by agar dilution method

## CC1(C)S[C@@H]2[C@H](NC(=O)Cc3ccccc3)C(=O)N2[C@H]1C(=O)O [PENICILLIN G]
Enterococcus faecalis
  MIC: 2 mg/L (≈ 5.98 µM)
  MIC50: 2 mg/L (≈ 5.98 µM)
  MIC90: 4 mg/L (≈ 12 µM)
Enterococcus faecium
  MIC: > 4 mg/L
  MIC50: > 4 mg/L
Streptococcus agalactiae
  MIC50: 0.06 mg/L (≈ 0.179 µM)
  MIC90: 0.06 mg/L (≈ 0.179 µM)
Streptococcus pyogenes
  MIC: ≤ 0.03 mg/L
  MIC50: ≤ 0.03 mg/L
  MIC90: ≤ 0.03 mg/L
[1]
  MIC: ≤ 0.03 mg/L
  MIC50: ≤ 0.03 mg/L
  MIC90: 0.06 mg/L (≈ 0.179 µM)
[2]
  MIC: ≤ 0.03 mg/L
  MIC50: ≤ 0.03 mg/L
  MIC90: ≤ 0.03 mg/L
[3]
  MIC: ≤ 0.03 mg/L
  MIC50: ≤ 0.03 mg/L
  MIC90: 0.12 mg/L (≈ 0.359 µM)
Streptococcus mitis
  MIC50: 0.5 mg/L (≈ 1.5 µM)
  MIC90: 0.5 mg/L (≈ 1.5 µM)
[4]
  MIC50: 0.5 mg/L (≈ 1.5 µM)
  MIC90: 0.5 mg/L (≈ 1.5 µM)
Aerococcus viridans
  MIC50: ≤ 0.03 mg/L
  MIC90: 1 mg/L (≈ 2.99 µM)
Bacillus
  MIC50: ≤ 0.03 mg/L
  MIC90: 1 mg/L (≈ 2.99 µM)
Gemella morbillorum
  MIC50: ≤ 0.03 mg/L
  MIC90: 1 mg/L (≈ 2.99 µM)
Gemella
  MIC50: ≤ 0.03 mg/L
  MIC90: 1 mg/L (≈ 2.99 µM)
Lactococcus lactis
  MIC50: ≤ 0.03 mg/L
  MIC90: 1 mg/L (≈ 2.99 µM)
Micrococcus
  MIC50: ≤ 0.03 mg/L
  MIC90: 1 mg/L (≈ 2.99 µM)

## CC(C)(O/N=C(\C(=O)N[C@@H]1C(=O)N2C(C(=O)[O-])=C(C[n+]3ccccc3)CS[C@H]12)c1csc(N)n1)C(=O)O [CEFTAZIDIME]
Pseudomonas aeruginosa
  MIC50: 2 mg/L (≈ 3.66 µM)
  MIC90: > 128 mg/L
Acinetobacter baumannii
  MIC50: > 16 mg/L
  MIC90: > 128 mg/L
Pseudomonas fluorescens
  MIC50: > 16 mg/L
  MIC90: > 128 mg/L
[5]
  MIC50: > 16 mg/L
  MIC90: > 128 mg/L
Klebsiella aerogenes
  MIC50: 0.12 mg/L (≈ 0.22 µM)
  MIC90: 16 mg/L (≈ 29.3 µM)
Klebsiella oxytoca
  MIC50: 0.12 mg/L (≈ 0.22 µM)
  MIC90: 16 mg/L (≈ 29.3 µM)
Enterococcus faecalis
  MIC50: > 128 mg/L
  MIC90: > 128 mg/L
Streptococcus agalactiae
  MIC50: 0.5 mg/L (≈ 0.915 µM)
  MIC90: 1 mg/L (≈ 1.83 µM)
Streptococcus pyogenes
  MIC50: 0.12 mg/L (≈ 0.22 µM)
  MIC90: 0.12 mg/L (≈ 0.22 µM)
[1]
  MIC50: 0.5 mg/L (≈ 0.915 µM)
  MIC90: 4 mg/L (≈ 7.32 µM)
[2]
  MIC50: 0.25 mg/L (≈ 0.457 µM)
  MIC90: 0.25 mg/L (≈ 0.457 µM)
[3]
  MIC50: 2 mg/L (≈ 3.66 µM)
  MIC90: 4 mg/L (≈ 7.32 µM)
Streptococcus mitis
  MIC50: 0.12 mg/L (≈ 0.22 µM)
  MIC90: 0.25 mg/L (≈ 0.457 µM)
[4]
  MIC50: 0.12 mg/L (≈ 0.22 µM)
  MIC90: 0.25 mg/L (≈ 0.457 µM)
Aerococcus viridans
  MIC50: 1 mg/L (≈ 1.83 µM)
  MIC90: 64 mg/L (≈ 117 µM)
Bacillus
  MIC50: 1 mg/L (≈ 1.83 µM)
  MIC90: 64 mg/L (≈ 117 µM)
Gemella morbillorum
  MIC50: 1 mg/L (≈ 1.83 µM)
  MIC90: 64 mg/L (≈ 117 µM)
Gemella
  MIC50: 1 mg/L (≈ 1.83 µM)
  MIC90: 64 mg/L (≈ 117 µM)
Lactococcus lactis
  MIC50: 1 mg/L (≈ 1.83 µM)
  MIC90: 64 mg/L (≈ 117 µM)
Micrococcus
  MIC50: 1 mg/L (≈ 1.83 µM)
  MIC90: 64 mg/L (≈ 117 µM)
Citrobacter braakii
  MIC50: 0.12 mg/L (≈ 0.22 µM)
  MIC90: 16 mg/L (≈ 29.3 µM)
Citrobacter freundii
  MIC50: 0.12 mg/L (≈ 0.22 µM)
  MIC90: 16 mg/L (≈ 29.3 µM)
Enterobacter amnigenus
  MIC50: 0.12 mg/L (≈ 0.22 µM)
  MIC90: 16 mg/L (≈ 29.3 µM)
Enterobacter cloacae
  MIC50: 0.25 mg/L (≈ 0.457 µM)
  MIC90: 64 mg/L (≈ 117 µM)
Escherichia coli
  MIC50: 0.12 mg/L (≈ 0.22 µM)
  MIC90: 0.25 mg/L (≈ 0.457 µM)
Klebsiella pneumoniae
  MIC50: 0.12 mg/L (≈ 0.22 µM)
  MIC90: 64 mg/L (≈ 117 µM)
Morganella morganii
  MIC50: ≤ 0.12 mg/L
  MIC90: 8 mg/L (≈ 14.6 µM)
Proteus mirabilis
  MIC50: 0.06 mg/L (≈ 0.11 µM)
  MIC90: 2 mg/L (≈ 3.66 µM)
Proteus penneri
  MIC50: 0.12 mg/L (≈ 0.22 µM)
  MIC90: 16 mg/L (≈ 29.3 µM)
Proteus vulgaris
  MIC50: 0.12 mg/L (≈ 0.22 µM)
  MIC90: 16 mg/L (≈ 29.3 µM)
Providencia stuartii
  MIC50: 0.12 mg/L (≈ 0.22 µM)
  MIC90: 16 mg/L (≈ 29.3 µM)
Salmonella
  MIC50: 0.12 mg/L (≈ 0.22 µM)
  MIC90: 16 mg/L (≈ 29.3 µM)
Serratia marcescens
  MIC50: 0.12 mg/L (≈ 0.22 µM)
  MIC90: 16 mg/L (≈ 29.3 µM)
